According to patent US8093260B2, “Aporphine derivatives and pharmaceutical use thereof” (Standard Chem. & Pharm. Co., Ltd., priority 2008, dated 2012):

Assays:
[1] = Free radical scavenging of AAPH (β-phycoerythrin fluorescence decay); assay type: biochemical; details: compound 5×10^−6 M, AAPH 25 mM, β-phycoerythrin 5 nM, FIG. 2
Excerpt: In order to evaluate the effect of test compounds in scavenging hydrophilic peroxy radical, the experiment was executed with reference to the method described by Tsuchiya et al. (Methods Enzymol 1992; 213: 460-472). In the experiment, peroxides will react with fluorescent substances and thus inflect observed fluorescence intensity. Thereby, the effect of test compounds in free radical scavenging can be evaluated by measuring the variation of the fluorescence intensity after the addition of test compounds.
First, to a silicate tube was added a phosphate solution (2 ml, pH 7.4), followed by the addition of β-phycoerythrin (5 nM) to increase relative fluorescence intensity. After 5 minutes, 2,2′-azobis(2-amidinopropane)dihydrochloride (25 mM, AAPH) was added therein. Subsequently, through a fluorescent spectrometry (Shimadzu RF-5301PC, Japan), the fluorescence intensity of β-phycoerythrin was measured by excitation at 540 nm and emission at 570 nm. Then, the test compounds (5×10^−6 M) was further added therein to observe the variation of the fluorescence intensity, in which 0.1% DMSO was taken as a control group.

[2] = tested on: vascular smooth muscle cells of rats; experiment: Protecting activity in vascular smooth muscle cells against H2O2 (MTT); assay type: cell-based, rat; details: compound 10 μM, 30 minutes before H2O2 200 μM, 24 hours, FIG. 3
Experimental: The vascular smooth muscle cells of rats (2×10^4 cells/mL×1 mL) were quantitatively seeded in 24-well plates, and cultured in Dulbecco's modified Eagle medium (DMEM) with 10% fetal bovine serum (FBS) for 24 hours to achieve cell adhesion. After cell adhesion, the DMEM medium with 10% fetal bovine serum was replaced with a fresh DMEM medium with 0.1% fetal bovine serum to perform cell culture for 48 hours.
Next, the test compounds were added in the cultures (final concentration: 0.1, 1, 10 μM). After 30 minutes, H2O2 (200 μM) was added therein to perform reaction for 24 hours in an incubator. Subsequently, in a light-proof environment, MTT (100 μL) was added into each well to perform reaction at 37° C. for 3 hours. The supernatant liquor was removed and then isopropanol (500 μL) was added, followed by shaking for 10 minutes. After standing for 10 minutes, supernatant liquor (200 μL) was transferred into 96-well plates. Finally, the absorbance values (O.D.) were monitored at 540 nm (OD540) and 630 nm (OD630). Based on the measured absorbance values (OD540-OD630), the effect of these test compounds on cell growth can be evaluated, as shown in FIG. 3.

lipid peroxidase = experiment: Activity in inhibiting lipid peroxidase (malondialdehyde quantitation); assay type: biochemical, Dunkin Hartley Guinea pig; details: 10 μM; guinea pig liver microsomes; 20 minutes/37° C.
Experimental: The assay was executed with reference to the method described in Biochem Biophys Res Commun. 1986; 135(3): 1015-1021.
• (a) Source: Dunkin Hartley Guinea pig liver microsomes • (b) Substrate: Polyunsaturated fatty acid • (c) Vehicle: 1% DMSO • (d) Pre-Incubation Time/Temp: 15 minutes/37° C. • (e) Incubation Time/Temp: 20 minutes/37° C. • (f) Incubation Buffer: 0.25 M Potassium Phosphate, pH 7.4, 0.1 mM EDTA • (g) Quantitation Method: Spectrophotometric quantitation of Malondialdehyde

COc1cc2c(cc1OC)-c1c(O)c(OC)cc3c1C(C2)N(CC(O)COc1ccccc1OC)CC3 (stereo not drawn) [Compound 1]
protection of β-phycoerythin from peroxy radical AAPH-induced damage (fluorescence decay) [1]: delay β-phycoerythin fluorescence degradation | inhibition of H2O2 damage to vascular smooth muscle cells (cell viability, MTT) [2]: significantly inhibit H2O2 to damage vascular smooth muscle cells | Inhibition (%) (lipid peroxidase): 64%

COc1cc2c(cc1OC)-c1c(O)c(OC)cc3c1C(C2)N(CC(=O)Nc1c(C)cccc1C)CC3 (stereo not drawn) [Compound 2]
protection of β-phycoerythin from peroxy radical AAPH-induced damage (fluorescence decay) [1]: delay β-phycoerythin fluorescence degradation | inhibition of H2O2 damage to vascular smooth muscle cells (cell viability, MTT) [2]: slightly inhibit H2O2 to damage vascular smooth muscle cells | Inhibition (%) (lipid peroxidase): 70%
